# Experimental data published in patent US20250197387A1, “BCL-XL DEGRADERS AND USES THEREOF” (Kymera Therapeutics, Inc., priority 2021, published 2025).
# Biological target: T1, BCL-XL (Homo sapiens, UniProt Q07817)
# T1 construct: endogenous in cells; host or cells: MOLT-4
# Assay: BCL-XL degradation assay, western blot in MOLT-4 cells, 16 h
# Format: cell-based
# Settings: western blot, MOLT-4 cells, 16 h; for Dmax: read-out: Bcl-xL WB in MOLT-4 degradation 16 h: Average Dmax %; for DC50: read-out: Bcl-xL WB in MOLT-4 degradation 16 h: Mean external-Abs DC50
# Method: Compounds treatment: compounds were reconstituted in DMSO to make a stock concentration of 10 mM. MOLT-4 cells were maintained in RPMI-1640+10% FBS+1% Penicillin-Streptomycin. Cells were seeded into 6-well plates in 2 mL at the seeding density of 2e6 cells/mL. Compounds were added to the cells to a final concentration ranging 0.02-10 μM. After 16 hr incubation at 37° C., in a CO2 incubator, cells were collected in an Eppendorf tube and centrifuged at 200×g for 5 minutes, the supernatant removed and pellets washed with ice-cold PBS, centrifuged and supernatant removed again. Then. 50 μl of pre-chilled RIPA lysis buffer (Boston BioProducts. BP-115D) with protease and phosphatase inhibitors (Roche Applied Science. #04906837001 and #04693116001) was added into cell pellet to lyze the cells for 20 minutes under 4° C. Cell lysates were spin at 13000 rpm for 10 minutes. Supernatants were collected and protein concentration was measured by BCA assay kit (Solarbio. PC0020-500) following the manufacturer's protocol. Samples' final protein concentration was adjusted to 3.75 μg/uL with the RIPA lysis buffer based on BCA assay results and 4× loading buffer (Invitrogen. NP0007) was added into the samples and samples were heated to 85° C., for 10 min and then let cool at RT. Samples were centrifuged at 13000 rpm for 10 min and then loaded into a 26-well NuPAGER. Novex 4-12% Bis-Tris Midi Gel (Invitrogen. WG1403BOX) and run in NuPAGER MOPS SDS Running Buffer (Invitrogen. NP0001) for 180 minutes at 70 V into a XCell4 SureLock™ Midi-Cell Runner (Invitrogen. WR0100). Gel were transferred using the Invitrogen iBlot gel transfer device (Invitrogen. IB21001) and the nitrocellulose transfer stacks (Invitrogen, IB23001) with Program PO for 9 minutes. The membrane was then blocked with 5% bovin serum albumin for 1 hr at RT, then incubated with primary antibodies diluted in blocking buffer (LI-COR. 927-60001) and shake at 4° C., overnight. The primary antibodies were anti-BCL-xL antibody (CST. 2762:1:1000), anti-beta-actin (CST. 3700; 1:5000) and anti-GAPDH (CST. 97166:1:5000). Membranes were then washed three times with PBST for 15 minutes at RT. Secondary antibodies IR-Dye 680 CW Goat anti Mouse IgG (LI-COR. 926-68070) and IR-Dye 800 CW Goat anti Rabbit IgG (LI-COR. 926-32211) were diluted at a ratio of 1:10000 into PBST and membranes incubated for 1 hour at RT. Membranes were then washed three times with PBST for 15 minutes at RT. The western blot images were obtained using Odyssey Imaging System and quantified using Image Studio Lite Ver 5.2 software.
# The letter codes for BCL-XL DC50 include: A (<0.01 μM); B (0.01-0.1 μM); C (>[…]); D (>0.5-1.0 μM); and E (>1.0 μM). The letter codes for Dmax % include A (>75%); B (50 to 75%); C (<50%).
# T1 sequence (Q07817 whole entry): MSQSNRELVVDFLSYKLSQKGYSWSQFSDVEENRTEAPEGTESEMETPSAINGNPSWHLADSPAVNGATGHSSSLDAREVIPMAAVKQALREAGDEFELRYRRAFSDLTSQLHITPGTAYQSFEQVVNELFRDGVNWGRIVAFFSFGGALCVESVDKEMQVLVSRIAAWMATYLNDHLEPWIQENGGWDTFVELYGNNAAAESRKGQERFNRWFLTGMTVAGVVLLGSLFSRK
Dmax,DC50,Compound
> 75%,10 to 100 nM,Cc1ncsc1-c1ccc(CNC(=O)[C@@H]2C[C@@H](O)CN2C(=O)C(c2cc(OCCCCCCCCC(=O)N(C)CC#Cc3ccc(OCCCc4sc(N5CCc6cccc(C(=O)Nc7nc8ccccc8s7)c6C5)nc4C(=O)O)c(F)c3)no2)C(C)C)cc1 (stereo partly drawn) [I-88]
< 50%,> 1000 nM,Cc1ncsc1-c1ccc(CNC(=O)[C@@H]2C[C@@H](O)CN2C(=O)[C@@H](NC(=O)C2(F)CC2)C(C)(C)C)c(O[C@H]2CC[C@H](C(=O)N3CCN(CC[C@H](CSc4ccccc4)Nc4ccc(S(=O)(=O)NC(=O)c5ccc(N6CCN(CC7=C(c8ccc(Cl)cc8)CCC(C)(C)C7)CC6)cc5)cc4S(=O)(=O)C(F)(F)F)CC3)CC2)c1 [I-89]
< 50%,> 1000 nM,Cc1ncsc1-c1ccc(CNC(=O)[C@@H]2C[C@@H](O)CN2C(=O)[C@@H](NC(=O)C2(F)CC2)C(C)(C)C)c(O[C@H]2CC[C@@H](C(=O)N3CCN(CC[C@H](CSc4ccccc4)Nc4ccc(S(=O)(=O)NC(=O)c5ccc(N6CCN(CC7=C(c8ccc(Cl)cc8)CCC(C)(C)C7)CC6)cc5)cc4S(=O)(=O)C(F)(F)F)CC3)CC2)c1 [I-90]
< 50%,> 1000 nM,Cc1ncsc1-c1ccc(CNC(=O)[C@@H]2C[C@@H](O)CN2C(=O)[C@@H](NC(=O)C2(F)CC2)C(C)(C)C)c(O[C@H]2C[C@H](C(=O)N3CCN(CC[C@H](CSc4ccccc4)Nc4ccc(S(=O)(=O)NC(=O)c5ccc(N6CCN(CC7=C(c8ccc(Cl)cc8)CCC(C)(C)C7)CC6)cc5)cc4S(=O)(=O)C(F)(F)F)CC3)C2)c1 [I-91]
> 75%,100 to 500 nM,C#Cc1ccc(CNC(=O)[C@@H]2C[C@@H](O)CN2C(=O)[C@@H](NC(=O)C2(F)CC2)C(C)(C)C)c(OCC(=O)N2CCN(CC[C@H](CSc3ccccc3)Nc3ccc(S(=O)(=O)NC(=O)c4ccc(N5CCN(CC6=C(c7ccc(Cl)cc7)CCC(C)(C)C6)CC5)cc4)cc3S(=O)(=O)C(F)(F)F)CC2)c1 [I-92]
50 to 75%,> 1000 nM,Cc1ncsc1-c1ccc([C@H](C)NC(=O)[C@@H]2C[C@@H](O)CN2C(=O)[C@@H](NC(=O)CCCCCC(=O)N2CCN(CC#Cc3ccc(OCCCc4sc(N5CCc6cccc(C(=O)Nc7nc8ccccc8s7)c6C5)nc4C(=O)O)cc3)CC2)C(C)(C)C)cc1 [I-93]
< 50%,> 1000 nM,CC1(C)CCC(c2ccc(Cl)cc2)=C(CN2CCN(c3ccc(C(=O)NS(=O)(=O)c4ccc(N[C@H](CCN5CCN(C(=O)COc6ccccc6CNC(=O)[C@@H]6C[C@@H](O)CN6C(=O)[C@@H](NC(=O)C6(F)CC6)C(C)(C)C)CC5)CSc5ccccc5)c(S(=O)(=O)C(F)(F)F)c4)cc3)CC2)C1 [I-97]
< 50%,> 1000 nM,CC1(C)CCC(c2ccc(Cl)cc2)=C(CN2CCN(c3ccc(C(=O)NS(=O)(=O)c4ccc(N[C@H](CCN5CCN(C(=O)COc6cc(F)ccc6CNC(=O)[C@@H]6C[C@@H](O)CN6C(=O)[C@@H](NC(=O)C6(F)CC6)C(C)(C)C)CC5)CSc5ccccc5)c(S(=O)(=O)C(F)(F)F)c4)cc3)CC2)C1 [I-98]
50 to 75%,> 1000 nM,Cc1cc(N(CCN(C)C(=O)CCCC(=O)N[C@H](C(=O)N2C[C@H](O)C[C@H]2C(=O)N[C@@H](C)c2ccc(-c3scnc3C)cc2)C(C)(C)C)c2ccc(-c3cnn(CC4CCCCC4)c3C)c(C(=O)O)n2)nnc1Nc1nc2ccccc2s1 [I-99]
50 to 75%,100 to 500 nM,Cc1cc(N(CCN(C)C(=O)CCCCCC(=O)N[C@H](C(=O)N2C[C@H](O)C[C@H]2C(=O)N[C@@H](C)c2ccc(-c3scnc3C)cc2)C(C)(C)C)c2ccc(-c3cnn(CC4CCCCC4)c3C)c(C(=O)O)n2)nnc1Nc1nc2ccccc2s1 [I-100]
< 50%,> 1000 nM,Cc1cc(N(CCN(C)C(=O)CCCCCCCCC(=O)N[C@H](C(=O)N2C[C@H](O)C[C@H]2C(=O)N[C@@H](C)c2ccc(-c3scnc3C)cc2)C(C)(C)C)c2ccc(-c3cnn(CC4CCCCC4)c3C)c(C(=O)O)n2)nnc1Nc1nc2ccccc2s1 [I-101]
50 to 75%,> 1000 nM,Cc1cc(N(CCN(C)C(=O)CCCOc2cc(-c3scnc3C)ccc2CNC(=O)[C@@H]2C[C@@H](O)CN2C(=O)[C@@H](NC(=O)C2(F)CC2)C(C)(C)C)c2ccc(-c3cnn(CC4CCCCC4)c3C)c(C(=O)O)n2)nnc1Nc1nc2ccccc2s1 [I-102]
< 50%,> 1000 nM,Cc1cc(N(CCN(C)C(=O)CCCCCOc2cc(-c3scnc3C)ccc2CNC(=O)[C@@H]2C[C@@H](O)CN2C(=O)[C@@H](NC(=O)C2(F)CC2)C(C)(C)C)c2ccc(-c3cnn(CC4CCCCC4)c3C)c(C(=O)O)n2)nnc1Nc1nc2ccccc2s1 [I-103]
< 50%,> 1000 nM,Cc1cc(N(CCN(C)C(=O)CCCCCCCCOc2cc(-c3scnc3C)ccc2CNC(=O)[C@@H]2C[C@@H](O)CN2C(=O)[C@@H](NC(=O)C2(F)CC2)C(C)(C)C)c2ccc(-c3cnn(CC4CCCCC4)c3C)c(C(=O)O)n2)nnc1Nc1nc2ccccc2s1 [I-104]
< 50%,> 1000 nM,Cc1ncsc1-c1ccc([C@H](C)NC(=O)[C@@H]2C[C@@H](O)CN2C(=O)[C@@H](NC(=O)CCCCCS(=O)(=O)NC(=O)c2ccc(N3CCN(CC4=C(c5ccc(Cl)cc5)CCC(C)(C)C4)CC3)cc2)C(C)(C)C)cc1 [I-106]
50 to 75%,> 1000 nM,Cc1ncsc1-c1ccc([C@H](C)NC(=O)[C@@H]2C[C@@H](O)CN2C(=O)[C@@H](NC(=O)CCCCCCCS(=O)(=O)NC(=O)c2ccc(N3CCN(CC4=C(c5ccc(Cl)cc5)CCC(C)(C)C4)CC3)cc2)C(C)(C)C)cc1 [I-107]
< 50%,> 1000 nM,Cc1ncsc1-c1ccc(CNC(=O)[C@@H]2C[C@@H](O)CN2C(=O)[C@@H](NC(=O)CCCC(=O)N(C)CCN(C)c2cc3c(c(C(=O)Nc4nc5ccccc5s4)c2)CN(c2ccc(-c4cnn(CC5CCCCC5)c4C)c(C(=O)O)n2)CC3)C(C)(C)C)cc1 [I-109]
< 50%,> 1000 nM,Cc1ncsc1-c1ccc([C@H](C)NC(=O)[C@@H]2C[C@@H](O)CN2C(=O)[C@@H](NC(=O)CCCC(=O)N(C)CCN(C)c2cc3c(c(C(=O)Nc4nc5ccccc5s4)c2)CN(c2ccc(-c4cnn(CC5CCCCC5)c4C)c(C(=O)O)n2)CC3)C(C)(C)C)cc1 [I-110]
50 to 75%,500 to 1000 nM,Cc1ncsc1-c1ccc([C@H](C)NC(=O)[C@@H]2C[C@@H](O)CN2C(=O)[C@@H](NC(=O)C2(F)CC2)C(C)(C)C)c(OCC(=O)N2CCN(CC[C@H](CSc3ccccc3)Nc3ccc(S(=O)(=O)NC(=O)c4ccc(N5CCN(CC6=C(c7ccc(Cl)cc7)CCC(C)(C)C6)CC5)cc4)cc3S(=O)(=O)C(F)(F)F)CC2)c1 [I-112]
< 50%,> 1000 nM,Cc1cc(N(CCCC(=O)N[C@H](C(=O)N2C[C@H](O)C[C@H]2C(=O)N[C@@H](C)c2ccc(-c3scnc3C)cc2)C(C)(C)C)c2ccc(-c3cnn(CC4CCCCC4)c3C)c(C(=O)O)n2)nnc1Nc1nc2ccccc2s1 [I-113]
> 75%,< 10 nM,Cc1ncsc1-c1ccc([C@H](C)NC(=O)[C@@H]2C[C@@H](O)CN2C(=O)[C@@H](NC(=O)CCCS(=O)(=O)NC(=O)c2nc(N3CCc4cccc(C(=O)Nc5nc6ccccc6s5)c4C3)ccc2-c2cnn(CC34CC5CC(CC(C5)C3)C4)c2C)C(C)(C)C)cc1 [I-117]
< 50%,> 1000 nM,Cc1ncsc1-c1ccc([C@H](C)NC(=O)[C@@H]2C[C@@H](O)CN2C(=O)[C@@H](NC(=O)CCCCCS(=O)(=O)NC(=O)c2cccc(N3CCc4cccc(C(=O)Nc5nc6ccccc6s5)c4C3)n2)C(C)(C)C)cc1 [I-119]
< 50%,> 1000 nM,Cc1ncsc1-c1ccc([C@H](C)NC(=O)[C@@H]2C[C@@H](O)CN2C(=O)[C@@H](NC(=O)CCc2ccc(S(=O)(=O)NC(=O)c3ccc(N4CCN(CC5=C(c6ccc(Cl)cc6)CCC(C)(C)C5)CC4)cc3)cc2)C(C)(C)C)cc1 [I-124]
< 50%,> 1000 nM,Cc1ncsc1-c1ccc([C@H](C)NC(=O)[C@@H]2C[C@@H](O)CN2C(=O)[C@@H](NC(=O)N2CC3(CCC(C(=O)N4CCN(CC[C@H](CSc5ccccc5)Nc5ccc(S(=O)(=O)NC(=O)c6ccc(N7CCN(CC8=C(c9ccc(Cl)cc9)CCC(C)(C)C8)CC7)cc6)cc5S(=O)(=O)C(F)(F)F)CC4)CC3)C2)C(C)(C)C)cc1 [I-125]
